Where two headings read alike, the source gives them in different places.
Experiments:
[1] = test system: HIV-1 (IIIB) in MT-4 cells; assay: MT-4 HIV assay; format: cell-based; details: Human immunodeficiency virus 1, MT4, 120 h
Outline: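 MT-4 cells infected with HIV-1 IIIB (1:250 stock dilution) were incubated with 1:3 serially diluted compounds in RPMI with 10% FBS for 5 days at 37 °C. Cell Titer Glo luminescence was the readout. Plates included mock-infected wells, no-drug wells and 5 uM AZT controls.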

[2] = Outline: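 Compounds at 1 uM were incubated in duplicate with dog, rat or human liver microsomes (0.5 mg/mL protein) and an NADPH-regenerating system, sampled at 2, 12, 25, 45 and 65 minutes. Remaining parent was measured by LC/MS/MS, and Clint was calculated from the in vitro t1/2.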
[3] = HIV-1 (IIIB), MT-4 cells, 5 days, Cell Titer Glo, read-out: EC50
[4] = human liver microsomes 0.5 mg/mL, 1 uM compound, NADPH
[5] = rat liver microsomes 0.5 mg/mL, 1 uM compound, NADPH

COC(=O)N[C@H](C(=O)N[C@@H](Cc1ccc(C#Cc2cnc(N3CCN(C4COC4)CC3)nc2)cc1)[C@@H](O)CN(Cc1c(F)cc(-c2cnn(C(F)F)c2)cc1F)NC(=O)[C@@H](NC(=O)OC)C(C)(C)C(F)(F)F)C(C)(C)C(F)(F)F [Example 103, Methyl ((5S,8S,9S,14S)-11-(4-(1-(difluoromethyl)-1H-pyrazol-4-yl)-2,6-difluorobenzyl)-16,16,16-trifluoro-9-hydroxy-15,15-dimethyl-8-(4-((2-(4-(oxetan-3-yl)piperazin-1-yl)pyrimidin-5-yl)ethynyl)benzyl)-3,6,13-trioxo-5-(1,1,1-trifluoro-2-methylpropan-2-yl)-2-oxa-4,7,11,12-tetraazahexadecan-14-yl)carbamate]
EC50 [1, 3]: 4.84 nM
Human Pred Cl. [2, 4]: 0.16 L/H/kg
Rat. Pred. Cl. [2, 5]: 0.32 L/H/kg

COC(=O)N[C@H](C(=O)NN(Cc1c(F)cc(-c2ccc(F)cn2)cc1F)C[C@H](O)[C@H](Cc1ccc(C#Cc2ccc(N3CC4CCC(C3)N4C3COC3)nc2)cc1)NC(=O)[C@@H](NC(=O)OC)C(C)(C)C(F)(F)F)C(C)(C)C [Example 105, Methyl ((5S,8S,9S,14S)-11-(2,6-difluoro-4-(5-fluoropyridin-2-yl)benzyl)-9-hydroxy-15,15-dimethyl-8-(4-((6-(8-(oxetan-3-yl)-3,8-diazabicyclo [3.2.1]octan-3-yl)pyridin-3-yl)ethynyl)benzyl)-3,6,13-trioxo-5-(1,1,1-trifluoro-2-methylpropan-2-yl)-2-oxa-4,7,11,12-tetraazahexadecan-14-yl)carbamate]
EC50 [1, 3]: 3.16 nM
Human Pred Cl. ([2]; human, microsomes): 0.39 L/H/kg

COC(=O)N[C@H](C(=O)NN(Cc1c(F)cc(-c2cnccn2)cc1F)C[C@H](O)[C@H](Cc1ccc(C#Cc2ccc(N3CC4CCC(C3)N4C3COC3)nc2)cc1)NC(=O)[C@@H](NC(=O)OC)C(C)(C)C(F)(F)F)C(C)(C)C [Example 107, Methyl ((5S,8S,9S,14S)-11-(2,6-difluoro-4-(pyrazin-2-yl)benzyl)-9-hydroxy-15,15-dimethyl-8-(4-((6-(8-(oxetan-3-yl)-3,8-diazabicyclo[3.2.1]octan-3-yl)pyridin-3-yl)ethynyl)benzyl)-3,6,13-trioxo-5-(1,1,1-trifluoro-2-methylpropan-2-yl)-2-oxa-4,7,11,12-tetraazahexadecan-14-yl)carbamate]
EC50 [1, 3]: 2.23 nM
Human Pred Cl. ([2]; human, microsomes): 1.1 L/H/kg

COC(=O)N[C@H](C(=O)N[C@@H](Cc1ccc(C#Cc2ccc(N3CCN(C4CCOC4)CC3)nc2)cc1)[C@@H](O)CN(Cc1c(F)cc(-c2cnn(C(F)F)c2)cc1F)NC(=O)[C@@H](NC(=O)OC)C(C)(C)C(F)(F)F)C(C)(C)C(F)(F)F (stereo partly drawn) [Example 114, Methyl ((5S,8S,9S,14S)-11-(4-(1-(difluoromethyl)-1H-pyrazol-4-yl)-2,6-difluorobenzyl)-16,16,16-trifluoro-9-hydroxy-15,15-dimethyl-3,6,13-trioxo-8-(4-((6-(4-(tetrahydrofuran-3-yl)piperazin-1-yl)pyridin-3-yl)ethynyl)benzyl)-5-(1,1,1-trifluoro-2-methylpropan-2-yl)-2-oxa-4,7,11,12-tetraazahexadecan-14-yl)carbamate]
EC50 [1, 3]: 5.1 nM
Human Pred Cl. [2, 4]: <0.11 L/H/kg
Rat. Pred. Cl. [2, 5]: 0.28 L/H/kg

COC(=O)N[C@H](C(=O)N[C@@H](Cc1ccc(C#Cc2ccc(N3CCN(C4CCOCC4)CC3)nc2)cc1)[C@@H](O)CN(Cc1c(F)cc(-c2cnn(C(F)F)c2)cc1F)NC(=O)[C@@H](NC(=O)OC)C(C)(C)C(F)(F)F)C(C)(C)C(F)(F)F [Example 115, Methyl ((5S,8S,9S,14S)-11-(4-(1-(difluoromethyl)-1H-pyrazol-4-yl)-2,6-difluorobenzyl)-16,16,16-trifluoro-9-hydroxy-15,15-dimethyl-3,6,13-trioxo-8-(4-((6-(4-(tetrahydro-2H-pyran-4-yl)piperazin-1-yl)pyridin-3-yl)ethynyl)benzyl)-5-(1,1,1-trifluoro-2-methylpropan-2-yl)-2-oxa-4,7,11,12-tetraazahexadecan-14-yl)carbamate]
EC50 [1, 3]: 3.19 nM
Human Pred Cl. [2, 4]: 0.12 L/H/kg
Rat. Pred. Cl. [2, 5]: <0.18 L/H/kg

COC(=O)N[C@H](C(=O)N[C@@H](Cc1ccc(C#Cc2cnc(N3CC4CCC(C3)N4C3COC3)nc2)cc1)[C@@H](O)CN(Cc1c(F)cc(-c2cnc(C)nc2)cc1F)NC(=O)[C@@H](NC(=O)OC)C(C)(C)C(F)(F)F)C(C)(C)C(F)(F)F [Example 119, Methyl ((5S,8S,9S,14S)-11-(2,6-difluoro-4-(2-methylpyrimidin-5-yl)benzyl)-16,16,16-trifluoro-9-hydroxy-15,15-dimethyl-8-(4-((2-(8-(oxetan-3-yl)-3,8-diazabicyclo[3.2.1]octan-3-yl)pyrimidin-5-yl)ethynyl)benzyl)-3,6,13-trioxo-5-(1,1,1-trifluoro-2-methylpropan-2-yl)-2-oxa-4,7,11,12-tetraazahexadecan-14-yl)carbamate]
EC50 [1, 3]: 3.66 nM
Dog. Pred. Cl. ([2]; dog, microsomes): 1.35 L/H/kg
Human Pred Cl. ([2]; human, microsomes): <0.11 L/H/kg
Rat. Pred. Cl. ([2]; rat, microsomes): 0.27 L/H/kg

COC(=O)N[C@H](C(=O)N[C@@H](Cc1ccc(C#Cc2cnc(N3CC4CCC(C3)N4C3COC3)nc2)cc1)[C@@H](O)CN(Cc1c(F)cc(-c2cnc(N3CC4CCC(C3)N4C3COC3)nc2)cc1F)NC(=O)[C@@H](NC(=O)OC)C(C)(C)C(F)(F)F)C(C)(C)C(F)(F)F [Example 120, Methyl ((5S,8S,9S,14S)-11-(2,6-difluoro-4-(2-(8-(oxetan-3-yl)-3,8-diazabicyclo[3.2.1]octan-3-yl)pyrimidin-5-yl)benzyl)-16,16,16-trifluoro-9-hydroxy-15,15-dimethyl-8-(4-((2-(8-(oxetan-3-yl)-3,8-diazabicyclo[3.2.1]octan-3-yl)pyrimidin-5-yl)ethynyl)benzyl)-3,6,13-trioxo-5-(1,1,1-trifluoro-2-methylpropan-2-yl)-2-oxa-4,7,11,12-tetraazahexadecan-14-yl)carbamate]
EC50 [1, 3]: 5.36 nM
Human Pred Cl. ([2]; human, microsomes): 0.14 L/H/kg
Rat. Pred. Cl. ([2]; rat, microsomes): 0.53 L/H/kg

COC(=O)N[C@H](C(=O)N[C@@H](Cc1ccc(C#Cc2cnc(N3CC4CCC(C3)N4C3COC3)nc2)cc1)[C@@H](O)CN(Cc1c(F)cc(-c2ccn(C(F)F)n2)cc1F)NC(=O)[C@@H](NC(=O)OC)C(C)(C)C)C(C)(C)C [Example 121, Methyl ((5S,8S,9S,14S)-5-(tert-butyl)-11-(4-(1-(difluoromethyl)-1H-pyrazol-3-yl)-2,6-difluorobenzyl)-9-hydroxy-15,15-dimethyl-8-(4-((2-(8-(oxetan-3-yl)-3,8-diazabicyclo[3.2.1]octan-3-yl)pyrimidin-5-yl)ethynyl)benzyl)-3,6,13-trioxo-2-oxa-4,7,11,12-tetraazahexadecan-14-yl)carbamate]
EC50 [1, 3]: 3.31 nM
Human Pred Cl. ([2]; human, microsomes): <0.11 L/H/kg
Rat. Pred. Cl. ([2]; rat, microsomes): <0.18 L/H/kg

COC(=O)N[C@H](C(=O)N[C@@H](Cc1ccc(C#Cc2cnc(N3CC4CCC(C3)N4C3COC3)nc2)cc1)[C@@H](O)CN(Cc1ccc(-c2ccn(C(F)F)n2)cc1)NC(=O)[C@@H](NC(=O)OC)C(C)(C)C(F)(F)F)C(C)(C)C(F)(F)F [Example 122, Methyl ((5S,8S,9S,14S)-11-(4-(1-(difluoromethyl)-1H-pyrazol-3-yl)benzyl)-16,16,16-trifluoro-9-hydroxy-15,15-dimethyl-8-(4-((2-(8-(oxetan-3-yl)-3,8-diazabicyclo[3.2.1]octan-3-yl)pyrimidin-5-yl)ethynyl)benzyl)-3,6,13-trioxo-5-(1,1,1-trifluoro-2-methylpropan-2-yl)-2-oxa-4,7,11,12-tetraazahexadecan-14-yl)carbamate]
EC50 [1, 3]: 4.57 nM
Human Pred Cl. ([2]; human, microsomes): <0.11 L/H/kg

COC(=O)N[C@H](C(=O)N[C@@H](Cc1ccc(C#Cc2cnc(N3CCNC(=O)C3)nc2)cc1)[C@@H](O)CN(Cc1c(F)cc(-c2ccn(C(F)F)n2)cc1F)NC(=O)[C@@H](NC(=O)OC)C(C)(C)C(F)(F)F)C(C)(C)C(F)(F)F [Example 123, Methyl ((5S,8S,9S,14S)-11-(4-(1-(difluoromethyl)-1H-pyrazol-3-yl)-2,6-difluorobenzyl)-16,16,16-trifluoro-9-hydroxy-15,15-dimethyl-3,6,3-trioxo-8-(4-((2 (3-oxopiperazin-1-yl)pyrimidin-5-yl)ethynyl)benzyl)-5-(1,1,1-trifluoro-2-methylpropan-2-yl)-2-oxa-4,7,11,12-tetraazahexadecan-14-yl)carbamate]
EC50 [1]: 4.16 nM
Human Pred Cl. [2, 4]: <0.11 L/H/kg
Rat. Pred. Cl. [2, 5]: <0.18 L/H/kg

COCCN1C2CCC1CN(c1ccc(C#Cc3ccc(C[C@H](NC(=O)[C@@H](NC(=O)OC)C(C)(C)C(F)(F)F)[C@@H](O)CN(Cc4c(F)cc(-c5ccn(C(F)F)n5)cc4F)NC(=O)[C@@H](NC(=O)OC)C(C)(C)C(F)(F)F)cc3)cn1)C2 [Example 124, Methyl ((5S,8S,9S,14S)-11-(4-(1-(difluoromethyl)-1H-pyrazol-3-yl)-2,6-difluorobenzyl)-16,16,16-trifluoro-9-hydroxy-8-(4-((6-(8-(2-methoxyethyl)-3,8-diazabicyclo[3.2.1]octan-3-yl)pyridin-3-yl)ethynyl)benzyl)-15,15-dimethyl-3,6,13-trioxo-5-(1,1,1-trifluoro-2-methylpropan-2-yl)-2-oxa-4,7,11,12-tetraazahexadecan-14-yl)carbamate]
EC50 [1, 3]: 6.32 nM
Human Pred Cl. ([2]; human, microsomes): <0.11 L/H/kg
Rat. Pred. Cl. ([2]; rat, microsomes): 0.5 L/H/kg

From US10294234B2, “HIV inhibitor compounds” (priority 2017, dated 2019)
